Test results taken from patent US8916517B2, “Analogs of pituitary adenylate cyclase-activating polypeptide (PACAP) and methods for their use” (The Administrators of the Tulane Educational Fund, priority 2009, dated 2014).
“And” between values parts separate entries of the source, which are not always exact repeats. Identical values can stand only once. “Also recorded” adds a separate entry of the source. Like-named read-outs stand apart in the source and are kept apart here.

Assays:
[1] = rat, in vivo, iv; cited from earlier work
[2] = system: light-chain immunoglobulin-secreting human multiple myeloma cells; assay: Inhibition of proliferation of light-chain immunoglobulin-secreting human multiple myeloma cells (bromodeoxyuridine incorporation); format: cell-based
Procedure: FIG. 3 is a table listing the EC50 for the inhibitory effects of PACAP38, PACAP27, VIP, and eight novel PACAP analogs on the proliferation of light-chain immunoglobulin-secreting myeloma cells. The light-chain immunoglobulin-secreting human multiple myeloma cells were cultured in RPMI 1640 medium supplemented with 10% non-inactivated fetal bovine serum and 0.05 mM 2-mercaptoethanol. The effects of PACAP38, PACAP27, VIP, and the eight novel PACAP analogs on myeloma cell proliferation were assessed by determining incorporation of bromodeoxyuridine into DNA during cell division. The number of myeloma cells approximately doubled during the 24-hour incubation period in the absence of treatment with PACAP-like peptides. Five different concentrations, ranging from 10^-13 M to 10^-5 M, were tested for PACAP38, PACAP27, VIP, and each of the eight novel PACAP analogs. The EC50 was calculated from the concentration response curve using the software package Prism (Graph Pad, San Diego, CA). Each value represents the mean of four-six determinations per experiment. The EC50 for PACAP38 is based on the average of four separate experiments, while the EC50 for PACAP27 and [Pip^3,Aib ^16,28,Ala^17,Lys^34,D-LysIPACAP 38 (SEQ ID NO: 4) is based on the average of two separate experiments.
FIG. 4 is a graph showing a representative concentration response curve from a single experiment on the inhibitory effects PACAP38 and six PACAP38 analogs on the proliferation of light-chain immunoglobulin-secreting human myeloma cells. Each value represents the mean plus/minus the standard error of four-six determinations. Note that replacing pipecolic acid in position 3 of the novel analogs with either nipecotic acid or isonipecotic acid results in an analog with more than four orders of magnitude lower inhibitory potency.
The effects of PACAP38, PACAP27, VIP, and PACAP analogs on myeloma cell proliferation were assessed by determining incorporation bromodeoxyuridine into DNA during cell division. […]

[3] = system: rat renal proximal tubule epithelial cells; assay: Reduction of cisplatin-induced apoptotic cell death of renal proximal tubule epithelial cells (histone-associated DNA fragmentation); format: cell-based; conditions: cisplatin 24 hours; for reduction in cisplatin-induced apoptotic cell death: 10^-6 M in the medium
PAC1 receptor = target: T1, PAC1 receptor (Homo sapiens, UniProt P41586); conditions: cited from earlier work
T1 sequence (P41586 21-468): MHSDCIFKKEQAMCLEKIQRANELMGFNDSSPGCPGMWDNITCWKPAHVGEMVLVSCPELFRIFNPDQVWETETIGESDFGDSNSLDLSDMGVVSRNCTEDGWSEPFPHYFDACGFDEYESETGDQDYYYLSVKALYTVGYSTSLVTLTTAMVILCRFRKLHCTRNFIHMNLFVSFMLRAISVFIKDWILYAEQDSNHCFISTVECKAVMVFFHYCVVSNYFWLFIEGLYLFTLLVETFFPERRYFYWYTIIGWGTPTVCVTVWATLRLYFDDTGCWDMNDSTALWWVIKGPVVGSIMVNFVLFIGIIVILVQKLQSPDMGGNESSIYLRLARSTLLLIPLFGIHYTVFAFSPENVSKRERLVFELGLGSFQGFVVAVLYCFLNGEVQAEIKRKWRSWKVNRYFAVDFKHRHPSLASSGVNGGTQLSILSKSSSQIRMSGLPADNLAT

[4] = system: rat hippocampal neuron/glia co-cultures; conditions: gp120 as neurotoxin; cited from earlier work
[5] = humans; cited from earlier work
[6] = system: ischemia/reperfusion injury to the kidney; assay: Serum creatinine after renal ischemia/reperfusion injury in mice; format: in vivo, male C57BL/6 mice; conditions: 20 micrograms i.p. 1, 24 and 48 h after start of reperfusion; 45 min renal artery clamping; 72 hours
Procedure: FIG. 6 is a graph showing the effects of PACAP38 and two novel PACAP analogs on serum creatinine levels in mice following ischemia/reperfusion injury to the kidney. The renal artery in male C57BL/6 mice was clamped bilaterally for 45 minutes in all mice except for the sham-operated mice. Twenty micrograms of PACAP38 or one of the PACAP analogs were given intraperitoneally 1 hour after the start of reperfusion and additional doses were given at 24 and 48 hours after the initial dose. The sham-operated group of mice was injected intraperitoneally with PACAP38 on the same schedule as the mice subjected to ischemia/reperfusion. The control group of mice was injected intraperitoneally with the same volume of saline as for the injections of PACAP38 on the same schedule. All of the mice were euthanized 24 hours after the final injection of saline, PACAP38 or one of the novel PACAP analogs. Each value represents the mean plus/minus the standard error of four determinations. **p<0.01 and *p<0.05 compared to the ischemia/reperfusion group treated with saline. I/R, ischemia/reperfusion; sham, sham-operated.

[7] = system: human myeloma cell line (MM.1S); assay: Proliferation of myeloma cell line MM.1S (bromodeoxyuridine incorporation); format: cell-based; conditions: FIG. 8
Procedure: (§1) FIG. 8 is a graph showing the effects PACAP38, [Pip^3,Ala^14,17,Aib^1 6,28,Lys^34,D-Lys^38 (SEQ ID NO: 6) and dexamethasone on the proliferation of light-chain immunoglobulin-secreting human myeloma cell line (MM.1S) that was derived from a patient who was being treated for multiple myeloma with a dexamethasome-containing regimen. The light-chain immunoglobulin-secreting multiple myeloma cells were cultured in RPMI 1640 medium supplemented with 10% non-inactivated fetal bovine serum and 0.05mM 2-mercaptoethanol. The effects of dexamethasone, PACAP38 and the novel PACAP38analog on cell proliferation were assessed by determining the incorporation of bromodeoxyuridine into DNA during cell division. Each value represents the mean plus/minus the standard error of four-six determinations. The cell lines in FIGS. 8 and 9 were obtained from the same patient at different stages of the treatment (Greenstein et al., Exp HematoI31 :271-282, 2003).

[8] = system: human myeloma cell line (MM.1 R); assay: Proliferation of dexamethasone-resistant myeloma cell line MM.1R (bromodeoxyuridine incorporation); format: cell-based; conditions: FIG. 9
Procedure: as §1, with “FIG. 9” for “FIG. 8”, “PACAP38, [Pip^3,Ala^14,17,Aib^16,28,Lys^34,D-Lys^38] PACAP38(SEQ” for “PACAP38, [Pip^3,Ala^14,17,Aib^1 6,28,Lys^34,D-Lys^38 (SEQ”, “line (MM.1 R)” for “line (MM.1S)”, “novel PACAP38 analog” for “novel PACAP38analog”, “four-six determination.” for “four-six determinations.”, “Exp Hematol 31” for “Exp HematoI31”

[9] = system: human renal proximal tubule epithelial cells; assay: Reduction of gentamicin-induced apoptotic cell death of human renal proximal tubule epithelial cells; format: cell-based; conditions: gentamicin 24 hours
Procedure: The inhibitory effects of PACAP38 and the novel PACAP analog on apoptotic cell death was assessed by the quantitative determination of cytoplasmic histone-associated DNA-fragmentation (mono- and oligonucleosomes) after exposure to gentamicin for 24 hours. […] Each value represents the mean plus/minus the standard deviation of four determinations. **p<0.01 and *p<0.05 compared to the group treated only with gentamicin.

[10] = system: transient focal cerebral ischemia; conditions: 48 hours, cited from earlier work

[^125I]-PACAP38
half-life in the bloodstream [1]: 5 to 6 min

VIP
potency compared with PACAP38 or the novel PACAP38 analogs ([2]; inhibition of myeloma cell proliferation): significantly less potent | reduction in cisplatin-induced apoptotic cell death [3]: reduced | cytoprotective potency compared with PACAP38 ([3]; comparable concentrations): significantly less potent than PACAP38 | affinity for PAC1 receptor relative to PACAP (PAC1 receptor): 1,000 times less

PACAP
peaks of bimodal dose-response curve for prevention of neuronal death [4]: 10^−13 M and 10^−10 M | only untoward effect reported [5]: transient flushing

HSDGIFTDSYSRYRKQMAVKKYLAAVLGKRYKQRVKNK [PACAP38]
EC50 ([2]; 24-hour incubation, FIG. 3, read-out: concentration giving 50% inhibition of the rate of proliferation (EC50)): ~0.25 nM | reduction in cisplatin-induced apoptotic cell death [3]: significant reduction | reversal of the rise in serum creatinine caused by ischemia/reperfusion [6]: almost completely reversed | sensitivity of cell proliferation [7]: sensitive | sensitivity of cell proliferation [8]: still sensitive | cytoprotective potency, PACAP38 versus [Pip^3]PACAP38 [9]: more effective | reduction in gentamicin-induced apoptotic cell death ([9]; various concentrations): significant dose-dependent reduction; also recorded: dose-dependent inhibition | reduction of the infarct volume ([10]; continuous i.v. infusion beginning 4 hours after start of 2-hour MCAO): approximately 51% | reduction of the infarct volume ([10]; continuous i.v. infusion beginning 8 hours after start of 2-hour MCAO): ~22% | reduction of the infarct volume ([10]; continuous i.v. infusion beginning 12 hours after start of 2-hour MCAO): ~12%
